Assay results: patent US20260256792A1, “TREATMENT OF CHRONIC SPONTANEOUS URTICARIA BY ADMINISTERING (R)-2-[3-[4-AMINO-3-(2-FLUORO-4-PHENOXY-PHENYL)PYRAZOLO[3,4-D]PYRIMIDIN-1-YL]PIPERIDINE-1-CARBONYL]-4-METHYL-4-[4-(OXETAN-3-YL)PIPERAZIN-1-YL]PENT-2-ENENITRILE” (priority 2023, published 2026)

System: moderate-to-severe chronic spontaneous urticaria (CSU)
Test: Phase 2 CSU study: urticaria activity score over 7 days (UAS7)
Type: in vivo, human
Conditions: Omalizumab-Naïve
From the text: The study comprises a 12 week, randomized, double-blind, placebo-controlled, multi-center, dose-ranging efficacy and safety phase, followed by a 40 week open label extension (OLE) phase (see FIG. 1). The study consists of three phases and an optional OLE phase. […] Clinically, CSU is characterized by the spontaneous and recurrent appearance of pruritic hives. The proposed primary endpoints were the UAS7 at Week 12 in EU and EU reference countries and the ISS7 in the US. Regardless of where a participant was from, all assessments were the same. The UAS7 score is a composite score containing both the HSS7 and the ISS7. This allowed a global assessment of the two key components of urticaria: hives and itch. […] The UAS is a validated PRO measure. […] The daily UAS scores range from 0 to 6 point/day. […] Patients were to complete the UAS using the e-diary. […] The following secondary endpoints were to be analyzed using the same approach as for the primary endpoint: • Change from baseline in UAS7 at Week 4 • Change from baseline in UAS7 at Week 12 (for US and US reference countries) • Change from baseline in ISS7 at Week 12 (except US and US reference countries) • Change from baseline in HSS7 at Week 12 The following responder secondary endpoints were to be analyzed using the Cochran-Mantel-Haenszel test adjusted by region: • Proportion of participants with UAS7<6 at Week 12 • Proportion of participants with UAS7=0 at Week 12 Participants who received selected prohibited medications and/or rescue medications were to be considered as non-responders for time points after the medication usage. For other participants, all available data including those collected during the off-treatment period were to be used to determine the responder/non-responder status. Missing data were to be considered as non-responders.

[1] = Age group (years) ≥44 (Median), 400 mg QPM
[2] = Age group (years) ≥44 (Median), 400 mg TID
[3] = Age group (years) ≥65, 400 mg BID
[4] = Age group (years) ≥65, 400 mg QPM
[5] = Age group (years) ≥65, 400 mg TID
[6] = Baseline BHRA BHRA+, 400 mg BID
[7] = Baseline BHRA BHRA+, 400 mg QPM
[8] = Baseline BHRA BHRA+, 400 mg TID
[9] = Baseline BHRA BHRA−, 400 mg BID
[10] = Baseline BHRA BHRA−, 400 mg QPM
[11] = Baseline BHRA BHRA−, 400 mg TID
[12] = Baseline Eosinophils (10^9/L) <0.150, 400 mg BID
[13] = Baseline Eosinophils (10^9/L) <0.150, 400 mg TID
[14] = Baseline Eosinophils (10^9/L) <0.165 (Median), 400 mg BID
[15] = Baseline Eosinophils (10^9/L) <0.165 (Median), 400 mg QPM
[16] = Baseline Eosinophils (10^9/L) <0.165 (Median), 400 mg TID
[17] = Baseline Eosinophils (10^9/L) <0.3, 400 mg BID
[18] = Baseline Eosinophils (10^9/L) <0.3, 400 mg QPM
[19] = Baseline Eosinophils (10^9/L) <0.3, 400 mg TID
[20] = Baseline Eosinophils (10^9/L) ≥0.150, 400 mg BID
[21] = Baseline Eosinophils (10^9/L) ≥0.150, 400 mg TID
[22] = Baseline Eosinophils (10^9/L) ≥0.165 (Median), 400 mg BID
[23] = Baseline Eosinophils (10^9/L) ≥0.165 (Median), 400 mg QPM
[24] = Baseline Eosinophils (10^9/L) ≥0.165 (Median), 400 mg TID

CC(C)(C=C(C#N)C(=O)N1CCC[C@@H](n2nc(-c3ccc(Oc4ccccc4)cc3F)c3c(N)ncnc32)C1)N1CCN(C2COC2)CC1 [rilzabrutinib, (R)-2-[3-[4-amino-3-(2-fluoro-4-phenoxy-phenyl)pyrazolo[3,4-d]pyrimidin-1-yl]piperidine-1-carbonyl]-4-methyl-4-[4-(oxetan-3-yl)piperazin-1-yl]pent-2-enenitrile]
Change from Baseline in UAS7 at Week 12: LS Mean Diff vs. placebo (95% CI) [1]: 2.72 (−5.76, 11.20)
Change from Baseline in UAS7 at Week 12: Mean (SD) [1]: −10.71 (7.99)
Change from Baseline in UAS7 at Week 12: LS Mean (SE) [2]: −17.54 (2.39)
Change from Baseline in UAS7 at Week 12: LS Mean Diff vs. placebo (95% CI) [2]: −5.98 (−13.92, 1.95)
Change from Baseline in UAS7 at Week 12: Mean (SD) [2]: −19.17 (11.98)
Change from Baseline in UAS7 at Week 12: LS Mean (SE) [3]: −21.85 (10.98)
Change from Baseline in UAS7 at Week 12: Mean (SD) [3]: −29.00 (NC)^
Change from Baseline in UAS7 at Week 12: LS Mean (SE) [4]: −1.73 (17.36)
Change from Baseline in UAS7 at Week 12: LS Mean Diff vs. placebo (95% CI) [4]: −3.19 (−44.28, 37.89)
Change from Baseline in UAS7 at Week 12: Mean (SD) [4]: −16.33 (NC) ^
Change from Baseline in UAS7 at Week 12: LS Mean (SE) [5]: −23.81 (7.07)
Change from Baseline in UAS7 at Week 12: Mean (SD) [5]: −24.13 (14.17)
Change from Baseline in UAS7 at Week 12: LS Mean (SE) [6]: −19.58 (5.46)
Change from Baseline in UAS7 at Week 12: LS Mean Diff vs. placebo (95% CI) [6]: −10.09 (−27.02, 6.84)
Change from Baseline in UAS7 at Week 12: Mean (SD) [6]: −19.50 (10.03)
Change from Baseline in UAS7 at Week 12: LS Mean (SE) [7]: −17.03 (6.45)
Change from Baseline in UAS7 at Week 12: LS Mean Diff vs. placebo (95% CI) [7]: −7.53 (−24.53, 9.46)
Change from Baseline in UAS7 at Week 12: Mean (SD) [7]: −19.94 (5.28)
Change from Baseline in UAS7 at Week 12: LS Mean (SE) [8]: −22.12 (5.72)
Change from Baseline in UAS7 at Week 12: LS Mean Diff vs. placebo (95% CI) [8]: −12.63 (−29.25, 4.00)
Change from Baseline in UAS7 at Week 12: Mean (SD) [8]: −22.13 (16.40)
Change from Baseline in UAS7 at Week 12: LS Mean (SE) [9]: −12.39 (2.21)
Change from Baseline in UAS7 at Week 12: LS Mean Diff vs. placebo (95% CI) [9]: −2.42 (−8.35, 3.52)
Change from Baseline in UAS7 at Week 12: LS Mean (SE) [10]: −8.95 (2.08)
Change from Baseline in UAS7 at Week 12: LS Mean Diff vs. placebo (95% CI) [10]: 1.02 (−4.73, 6.78)
Change from Baseline in UAS7 at Week 12: Mean (SD) [10]: −9.96 (9.08)
Change from Baseline in UAS7 at Week 12: LS Mean (SE) [11]: −16.51 (2.11)
Change from Baseline in UAS7 at Week 12: LS Mean Diff vs. placebo (95% CI) [11]: −6.53 (−12.28, −0.79)
Change from Baseline in UAS7 at Week 12: Mean (SD) [11]: −18.52 (10.75)
Change from Baseline in UAS7 at Week 12: LS Mean Diff vs. placebo (95% CI) (Baseline BMI (kg/m^2) ≥30, 400 mg BID): −1.65 (−13.49, 10.19)
Change from Baseline in UAS7 at Week 12: LS Mean Diff vs. placebo (95% CI) (Baseline BMI (kg/m^2) ≥30, 400 mg QPM): −0.43 (−11.59, 10.72)
Change from Baseline in UAS7 at Week 12: LS Mean Diff vs. placebo (95% CI) (Baseline BMI (kg/m^2) ≥30, 400 mg TID): −7.58 (−20.66, 5.50)
Change from Baseline in UAS7 at Week 12: LS Mean (SE) [12]: −13.60 (3.19)
Change from Baseline in UAS7 at Week 12: LS Mean Diff vs. placebo (95% CI) [12]: −0.54 (−8.95, 7.87)
Change from Baseline in UAS7 at Week 12: LS Mean (SE) [13]: −20.09 (3.11)
Change from Baseline in UAS7 at Week 12: LS Mean Diff vs. placebo (95% CI) [13]: −7.04 (−15.34, 1.27)
Change from Baseline in UAS7 at Week 12: LS Mean (SE) [14]: −14.30 (2.83)
Change from Baseline in UAS7 at Week 12: LS Mean Diff vs. placebo (95% CI) [14]: −1.83 (−9.50, 5.84)
Change from Baseline in UAS7 at Week 12: Mean (SD) [14]: −11.24 (8.98)
Change from Baseline in UAS7 at Week 12: LS Mean (SE) [15]: −7.71 (2.71)
Change from Baseline in UAS7 at Week 12: LS Mean Diff vs. placebo (95% CI) [15]: 4.76 (−2.75, 12.26)
Change from Baseline in UAS7 at Week 12: Mean (SD) [15]: 9.46 (8.63)
Change from Baseline in UAS7 at Week 12: LS Mean (SE) [16]: −19.82 (2.96)
Change from Baseline in UAS7 at Week 12: LS Mean Diff vs. placebo (95% CI) [16]: −7.36 (−15.23, 0.52)
Change from Baseline in UAS7 at Week 12: Mean (SD) [16]: −21.57 (13.01)
Change from Baseline in UAS7 at Week 12: LS Mean (SE) [17]: −15.05 (2.31)
Change from Baseline in UAS7 at Week 12: LS Mean Diff vs. placebo (95% CI) [17]: −4.89 (−11.04, 1.26)
Change from Baseline in UAS7 at Week 12: Mean (SD) [17]: −14.90 (12.30)
Change from Baseline in UAS7 at Week 12: LS Mean (SE) [18]: −9.19 (2.15)
Change from Baseline in UAS7 at Week 12: LS Mean Diff vs. placebo (95% CI) [18]: 0.97 (−5.00, 6.93)
Change from Baseline in UAS7 at Week 12: Mean (SD) [18]: −10.75 (8.91)
Change from Baseline in UAS7 at Week 12: LS Mean (SE) [19]: −18.29 (2.31)
Change from Baseline in UAS7 at Week 12: LS Mean Diff vs. placebo (95% CI) [19]: −8.14 (−14.29, −1.98)
Change from Baseline in UAS7 at Week 12: Mean (SD) [19]: −19.99 (12.00)
Change from Baseline in UAS7 at Week 12: LS Mean (SE) [20]: −14.57 (2.57)
Change from Baseline in UAS7 at Week 12: LS Mean Diff vs. placebo (95% CI) [20]: −7.68 (−15.25, −0.11)
Change from Baseline in UAS7 at Week 12: LS Mean (SE) [21]: −14.80 (2.58)
Change from Baseline in UAS7 at Week 12: LS Mean Diff vs. placebo (95% CI) [21]: −7.92 (−15.27, −0.56)
Change from Baseline in UAS7 at Week 12: LS Mean (SE) [22]: −14.13 (2.87)
Change from Baseline in UAS7 at Week 12: LS Mean Diff vs. placebo (95% CI) [22]: −7.01 (−15.24, 1.22)
Change from Baseline in UAS7 at Week 12: Mean (SD) [22]: −17.73 (14.16)
Change from Baseline in UAS7 at Week 12: LS Mean (SE) [23]: −10.83 (2.83)
Change from Baseline in UAS7 at Week 12: LS Mean Diff vs. placebo (95% CI) [23]: −3.71 (−11.80, 4.38)
Change from Baseline in UAS7 at Week 12: Mean (SD) [23]: −11.84 (10.30)
Change from Baseline in UAS7 at Week 12: LS Mean (SE) [24]: −14.63 (2.71)
Change from Baseline in UAS7 at Week 12: LS Mean Diff vs. placebo (95% CI) [24]: −7.52 (−15.32, 0.28)
